This note sets out measurements from patent publication US20230348459A1, “PYRROLIDINE COMPOUND AND USE THEREOF” (SIMCERE PHARMACEUTICAL CO., LTD., priority 2020, published 2023).

What all share (assay type): in vitro ADME
Data set [1] in a line: Plasma protein binding rate, equilibrium dialysis, monkey plasma. To be noted: pH 7.4, Cynomolgus monkey plasma, 6 hours dialysis. The method, then:
(§1) The protein binding rate of the compounds of the present invention in the plasma of five species (human, monkey, dog, rat and mouse) was determined by the following test method.
(§2) • 1. Human plasma (BioIVT), beagle dog plasma (BioIVT), SD rat plasma (BioIVT), CD-1 mouse plasma (BioIVT); • 2. 96-well equilibrium dialysis plate (HTDialysis LLC, Gales Ferry, CT, HTD96B), equilibrium dialysis membrane (MWCO 12-14 K, #1101); • 3. Positive control compound warfarin; • 4. ABI QTrap 5500 liquid chromatography-mass spectrometry.
(§3) 1. Preparation of a buffer with a concentration of 100 mM sodium phosphate and 150 mM NaCl: an alkaline solution with a concentration of 14.2 g/L Na2HPO4 and 8.77 g/L NaCl was prepared with ultrapure water, and an acidic solution with a concentration of 12.0 g/L NaH2PO4 and 8.77 g/L NaCl was prepared with ultrapure water. The alkaline solution was titrated with the acidic solution to pH 7.4 to prepare a buffer with a concentration of 100 mM sodium phosphate and 150 mM NaCl.
(§4) 2. Preparation of dialysis membrane: the dialysis membrane was soaked in ultrapure water for 60 minutes to separate the membrane into two pieces, then soaked in 20% ethanol for 20 minutes, and finally soaked in the buffer used for dialysis for 20 minutes.
(§5) 3. Preparation of plasma: the frozen plasma was quickly thawed at room temperature, then the plasma was centrifuged at 3,220 g at 4° C. for 10 min to remove clots, and the supernatant was collected into a new centrifuge tube. The pH of the plasma was measured and recorded, and the plasma with pH of 7-8 was used.
(§6) 3. Preparation of compound-containing plasma samples: 10 mM stock solution of compounds of the present invention or positive control compounds were diluted with DMSO to obtain 200 µM working solution. […]
(§7) The peak areas of the compounds on the buffer side and the plasma side were determined. […]
(§8) All the data was calculated by the Microsoft Excel software. The plasma protein binding rate values of the compounds of the present invention were calculated.
A general note: Equilibrium dialysis compares concentrations on both sides of a semipermeable membrane.

Data set [2] can be described thus: Plasma protein binding rate, equilibrium dialysis, human plasma. Particulars: pH 7.4, 6 hours dialysis. On the procedure: as §1, §2, §3, §4, §5, §6, §7, §8
For data set [3], the target named is CYP2D6 (Homo sapiens (Human), UniProt P10635). In words: Inhibition of CYP2D6 enzymatic activity in human liver microsomes. To be noted: substrate dextromethorphan. The method, then:
(§9) The inhibition of CYP2C9 and CYP2D6 enzymatic activities by the compounds of the present invention was determined by the following test method.
(§10) • 1. Human liver microsomes (Corning 452117) • 2. NADPH (Solarbio 705Y021) • 3. Positive substrates diclofenac (Sigma SLBV3438), dextromethorphan (TRC 3-EDO-175-1) and midazolam (Cerilliant FE01161704) • 4. Positive inhibitors sulfaphenazole (D. Ehrenstorfer GmbH 109012), quinidine (TCI WEODL-RE) and ketoconazole (Sigma 100M1091V) • 5. AB Sciex Triple Quad 5500 liquid chromatography-mass spectrometry
(§11) 1. Preparation of 100 mM phosphate buffered saline (PBS): 7.098 g of Na2HPO4 was weighed, 500 mL of pure water was added and subjected to ultrasonic dissolution to obtain solution A. 3.400 g of KH2PO4 was weighed, 250 mL of pure water was added and subjected to ultrasonic dissolution to obtain solution B. Solution A was placed on a stirrer and solution B was slowly added until pH reaches 7.4 to prepare 100 mM PBS buffer.
(§12) 2. Preparation of 10 mM NADPH solution with 100 mM PBS buffer. 10 mM stock solution of compounds of the invention was diluted with DMSO to obtain a 200× concentration of compound working solution (6000, 2000, 600, 200, 60, 20, 0 µM). The stock solution of positive inhibitors was diluted with DMSO to obtain a 200× concentration of positive inhibitor working solution (sulfaphenazole, 1000, 300, 100, 30, 10, 3, 0 µM; quinidine/ketoconazole, 100, 30, 10, 3, 1, 0.3, 0 µM). A 200 × concentration of substrate working solution (120 µM of diclofenac, 400 µM of dextromethorphan, and 200 µM of midazolam) was prepared in water, acetonitrile, or acetonitrile/methanol.
(§13) 3. 2 µl of 20 mg/ml liver microsome solution, 1 µl of substrate working solution, 1 µl of compound working solution and 176 µl of PBS buffer were taken, mixed uniformly, and pre-incubated in a 37° C. water bath for 15 minutes. […]
(§14) The IC50 values of the compounds of the present invention against CYP2C9 and CYP2D6 were calculated by Excel XLfit 5.3.1.3.
In general terms: Liver microsomes are a subcellular fraction often used to study metabolism.

Data set [4] deals with CYP2C9 (Homo sapiens (Human), UniProt P11712). In words: Inhibition of CYP2C9 enzymatic activity in human liver microsomes. To be noted: substrate diclofenac. On the procedure:
as §9, §10, §11, §12, §13, §14

CYP2C9, sequence (P11712 whole entry): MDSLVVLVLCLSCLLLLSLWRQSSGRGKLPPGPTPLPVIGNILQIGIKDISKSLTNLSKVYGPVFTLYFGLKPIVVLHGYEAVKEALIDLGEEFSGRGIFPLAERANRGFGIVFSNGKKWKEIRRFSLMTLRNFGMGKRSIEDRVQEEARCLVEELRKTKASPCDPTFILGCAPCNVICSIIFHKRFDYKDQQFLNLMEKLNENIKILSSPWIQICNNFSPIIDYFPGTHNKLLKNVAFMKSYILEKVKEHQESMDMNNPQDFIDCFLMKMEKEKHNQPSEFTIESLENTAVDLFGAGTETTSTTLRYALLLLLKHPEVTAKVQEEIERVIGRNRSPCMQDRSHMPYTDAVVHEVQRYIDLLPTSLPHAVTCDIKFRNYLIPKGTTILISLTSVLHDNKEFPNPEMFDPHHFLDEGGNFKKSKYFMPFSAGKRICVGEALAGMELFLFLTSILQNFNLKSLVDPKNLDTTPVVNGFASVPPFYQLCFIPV
CYP2D6, sequence (P10635 whole entry): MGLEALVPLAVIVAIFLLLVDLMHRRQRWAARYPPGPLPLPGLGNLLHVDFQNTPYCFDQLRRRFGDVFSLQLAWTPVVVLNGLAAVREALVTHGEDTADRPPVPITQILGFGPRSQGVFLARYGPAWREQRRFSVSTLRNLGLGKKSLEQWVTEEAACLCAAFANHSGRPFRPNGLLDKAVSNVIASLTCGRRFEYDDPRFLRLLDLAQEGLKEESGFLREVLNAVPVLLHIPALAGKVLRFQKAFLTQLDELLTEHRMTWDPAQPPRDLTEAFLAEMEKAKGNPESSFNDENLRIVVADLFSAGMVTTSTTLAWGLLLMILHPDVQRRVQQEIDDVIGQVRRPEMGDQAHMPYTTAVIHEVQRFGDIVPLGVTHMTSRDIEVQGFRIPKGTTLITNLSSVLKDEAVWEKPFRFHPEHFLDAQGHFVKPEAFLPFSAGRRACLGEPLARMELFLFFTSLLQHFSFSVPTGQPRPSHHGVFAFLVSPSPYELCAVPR

Broadly, the fraction unbound is the share of the substance not bound to proteins or other matrix. The term IC50 denotes the concentration that inhibits the measured activity by half. In the case of `C[C@@H]1Cc2c([nH]c3ccccc23)C(c2c(F)cc(N[C@H]3CCN(CCCF)C3)cc2F)N1CC(F)(F)F` (stereo in doubt) [Example 4, (S)-N-(3,5-difluoro-4-((1S,3R)-3-methyl-2-(2,2,2-trifluoroethyl)-2,3,4,9-tetrahydro-1H-pyridino[3,4-b]indol-1-yl)phenyl)-1-(3-fluoropropyl)pyrrolidin-3-amine], the fraction unbound at 6 h, 1 µM in data set [1] and in data set [2] was 0.002 throughout. The IC50 in data set [3] came out at 27 µM; in data set [4] it was 20 µM.
For `C[C@@H]1Cc2c([nH]c3ccccc23)C(c2c(F)cc(N[C@H]3CCN(CCCF)C3)cc2F)N1CC(F)(F)CO` (stereo in doubt) [Example 7, 3-((1S,3R)-1-(2,6-difluoro-4-(((S)-1-(3-fluoropropyl)pyrrolidin-3-yl)amino)phenyl)-3-methyl-3,4-dihydro-1H-pyridino [3,4-b]indole-2(9H)-yl)-2,2-difluoropropane-1-ol], the fraction unbound at 6 h, 1 µM in data set [1] was 0.023; in data set [2], 0.005. In addition, the IC50 in data set [3] amounted to 23 µM; in data set [4] it was 8 µM.
Taken in the same sequence, the figures for `C[C@@H]1Cc2c([nH]c3ccccc23)[C@@H](c2ccc(N[C@H]3CCN(CCCF)C3)cn2)N1CC(F)(F)F` [Example 3, N-((S)-1-(3-fluoropropyl)pyrrolidin-3-yl)-6-((1S,3R)-3-methyl-2-(2,2,2-trifluoroethyl)-2,3,4,9-tetrahydro-1H-pyridino[3,4-b]indol-1-yl)pyridine-3-amine] were 0.022, 0.012, > 30 µM and > 30 µM.
